Among the test systems are HCT-15 colon; HT29 colon; OVCAR-3 ovarian; RPMI-8226 leukemia; RXF 393 renal; SF-268 CNS; SK-MEL-2 melanoma; SK-MEL-5 melanoma; SK-OV-3 ovarian; SN12C renal; UACC-257 melanoma; UO-31 renal; A498 renal; HL-60(TB) leukemia; MDA-N; NCI/ADR-RES ovarian.
What all share (assay): NCI-60 cell line screen, 48 h

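Dose response: 5 concentrations. Exposure: 48 h. Format: 96-well plates. Endpoint: linear interpolation; highest concentration if not reached. Definition used: TGI = concentration required for complete inhibition of growth.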

Regarding `Cc1ccccc1NC(=O)CSc1nnc(Cc2ccccc2)o1`, the TGI in the assay with HCT-15 colon, in the assay with HT29 colon, in the assay on OVCAR-3 ovarian, with RPMI-8226 leukemia, in the assay on RXF 393 renal and in the assay on SF-268 CNS was over 100 µM in each case. In addition, the TGI with SK-MEL-2 melanoma, in the assay with SK-MEL-5 melanoma, with SK-OV-3 ovarian, in the assay with SN12C renal, with UACC-257 melanoma and in the assay with UO-31 renal was over 100 µM in each case.
For the compound `COc1nc(OC)nc(Sc2ccc(Sc3ccc(Sc4nc(OC)nc(OC)n4)cc3)cc2)n1`, the TGI with A498 renal, in the assay on HCT-15 colon, with HL-60(TB) leukemia, in the assay with HT29 colon, in the assay on OVCAR-3 ovarian and in the assay on RPMI-8226 leukemia was over 100 µM throughout. For the same compound, the TGI in the assay on RXF 393 renal, with SF-268 CNS, with SK-MEL-2 melanoma, in the assay on SK-MEL-5 melanoma, with SK-OV-3 ovarian and in the assay on SN12C renal was over 100 µM in each case. For the same compound, the TGI in the assay on UACC-257 melanoma and in the assay on UO-31 renal was over 100 µM in each case.
For the compound `O=C1/C(=C/c2ccc(Cl)cc2)Sc2scc(-c3cccc([N+](=O)[O-])c3)[n+]21`, the TGI in the assay on HCT-15 colon is 4.66 µM; in the assay with HT29 colon, over 45 µM; in the assay on MDA-N, 13.8 µM; in the assay with OVCAR-3 ovarian it was 36 µM; in the assay on RPMI-8226 leukemia it was 3.99 µM; with RXF 393 renal, 7.97 µM. Moreover, the TGI came to 14.6 µM in the assay with SF-268 CNS; 29.1 µM with SK-MEL-2 melanoma; 12.9 µM in the assay on SK-MEL-5 melanoma; 23.6 µM with SK-OV-3 ovarian; 11.9 µM in the assay with SN12C renal; 10.9 µM in the assay on UACC-257 melanoma. In the assay with UO-31 renal, this compound had a TGI of 15.5 µM.
`CCCOP(=S)(N1CC1)N1CC1`: the TGI in the assay with A498 renal, in the assay with HCT-15 colon, in the assay on HL-60(TB) leukemia, in the assay on HT29 colon, in the assay on OVCAR-3 ovarian and with RPMI-8226 leukemia was over 100 µM throughout. In addition, the TGI in the assay on RXF 393 renal, in the assay with SF-268 CNS, in the assay on SK-MEL-2 melanoma, with SK-MEL-5 melanoma, in the assay on SK-OV-3 ovarian and with SN12C renal was over 100 µM each time. The TGI in the assay on UACC-257 melanoma is 46.5 µM; with UO-31 renal, over 100 µM.
`CSc1nc(-c2ccc(Cl)cc2)c(C#N)c(=O)[nH]1`: the TGI in the assay on A498 renal, with HCT-15 colon, with HL-60(TB) leukemia, in the assay with HT29 colon, in the assay on NCI/ADR-RES ovarian and in the assay on OVCAR-3 ovarian was over 100 µM throughout. For the same compound, the TGI with RPMI-8226 leukemia, with RXF 393 renal, with SF-268 CNS, with SK-MEL-2 melanoma, in the assay on SK-MEL-5 melanoma and in the assay on SK-OV-3 ovarian was over 100 µM each time. Besides, the TGI in the assay with SN12C renal, in the assay with UACC-257 melanoma and with UO-31 renal was over 100 µM throughout.
Turning to `Cn1nc(C(=O)N2CC(CCl)c3c2cc([N+](=O)[O-])c2ccccc32)cc1NC(=O)Nc1cc(C(=O)N2CC(CCl)c3c2cc([N+](=O)[O-])c2ccccc32)nn1C` (stereo not given), the TGI in the assay on A498 renal, with HCT-15 colon, with MDA-N, in the assay with NCI/ADR-RES ovarian, with OVCAR-3 ovarian and in the assay with RPMI-8226 leukemia was over 100 µM throughout. Also, the TGI in the assay on SF-268 CNS, with SK-MEL-2 melanoma, in the assay with SK-MEL-5 melanoma, with SK-OV-3 ovarian, with SN12C renal and with UACC-257 melanoma was over 100 µM throughout. Besides, the TGI in the assay with UO-31 renal was over 100 µM.
In the case of `CCOC(=O)c1c(NC(=O)c2ccc(Br)cc2)sc2c1CCCC2`, the TGI in the assay with A498 renal, in the assay with HL-60(TB) leukemia, with HT29 colon, with MDA-N, in the assay with OVCAR-3 ovarian and with RPMI-8226 leukemia was over 100 µM throughout. Moreover, the TGI in the assay on RXF 393 renal, in the assay with SF-268 CNS, in the assay with SK-MEL-2 melanoma, with SK-MEL-5 melanoma, in the assay with SN12C renal and in the assay with UACC-257 melanoma was over 100 µM in each case. This compound gave a TGI in the assay on UO-31 renal of over 100 µM.
For `COc1cc2c(cc1OCCCCN1CCN(CCCCOc3cc4c(cc3OC)C(=O)N3CCC[C@H]3C=N4)CC1)N=C[C@@H]1CCCN1C2=O`, the TGI in the assay on A498 renal is 0.0692 µM; in the assay on HT29 colon it was 0.656 µM; in the assay on NCI/ADR-RES ovarian, 16.5 µM; in the assay on OVCAR-3 ovarian, 0.0636 µM; in the assay with RPMI-8226 leukemia, under 0.0241 µM; in the assay with RXF 393 renal, 0.507 µM. The TGI in the assay with SF-268 CNS is 16.5 µM; in the assay with SK-MEL-2 melanoma, 0.175 µM; in the assay on SK-MEL-5 melanoma it was 0.0476 µM; with SK-OV-3 ovarian, over 100 µM; in the assay with SN12C renal, 1.1 µM; in the assay with UACC-257 melanoma it was 0.676 µM. The TGI in the assay with UO-31 renal was over 100 µM.
Take `O=C1Nc2ccc(Br)cc2/C1=C/C(=O)c1ccccc1`: the TGI in the assay on A498 renal was 34.6 µM; in the assay with HCT-15 colon, 6.51 µM; in the assay with HL-60(TB) leukemia it was over 29.1 µM; in the assay on HT29 colon, 3.39 µM; in the assay with OVCAR-3 ovarian it was 18.2 µM; in the assay with RPMI-8226 leukemia it was over 23.6 µM. Moreover, the TGI in the assay with RXF 393 renal is 5.45 µM; in the assay on SF-268 CNS it was 50.8 µM; in the assay with SK-MEL-2 melanoma, 32.3 µM; in the assay with SK-MEL-5 melanoma, 41.7 µM; in the assay on SK-OV-3 ovarian, 31.9 µM; in the assay with SN12C renal, 10.5 µM. Also, the TGI in the assay on UACC-257 melanoma amounted to 29 µM; in the assay with UO-31 renal, 6.98 µM.
`Cc1cc(C(O)CNC(C)CCn2cnc3c2c(=O)n(C)c(=O)n3C)ccc1O` (stereo not given): the TGI in the assay with A498 renal, in the assay on HCT-15 colon, in the assay with HT29 colon, with NCI/ADR-RES ovarian, with OVCAR-3 ovarian and in the assay with RPMI-8226 leukemia was over 100 µM in each case. The TGI with RXF 393 renal, with SF-268 CNS, with SK-MEL-2 melanoma, with SK-MEL-5 melanoma, in the assay on SK-OV-3 ovarian and in the assay on SN12C renal was over 100 µM in each case. In addition, the TGI with UACC-257 melanoma and with UO-31 renal was over 100 µM in each case.

Values taken from PubChem BioAssay (NCI).
